Experimental data reported in patent US5200343A, “Method for microbial dehalogenation of haloaliphatic compounds using a sulfate reducing bacteria, desulfomonile tiedjei” (Board of Trustees operating Michigan State University, priority 1991, dated 1993).
Like-named read-outs stand apart in the source and are kept apart here.

Key:
[1] = test system: 3-Chlorobenzoate Dechlorination Activity; test: Induction of 3-chlorobenzoate dechlorination activity by growth with 3-chlorobenzoate, analogues, or chloro- and iodobenzoates (Tables 4, 5); type: cell-based, Desulfomonile tiedjei
Description: Table 4. Cultures were grown in the presence of 3-chlorobenzoate or a 3-chlorobenzoate analogue substituted at the 1- or 3- position with the indicated functional groups. After several generations the culture were concentrated, washed and resuspended in anaerobic buffered salts containing 1 mM 3-chlorobenzoate and 10 mM pyruvate (as electron donor). […] After two hours samples were taken for benzoate analysis by HPLC. Values presented are the average of duplicate or triplicate cultures ± sample standard deviation.
Table 5. Chloro- and iodobenzoates were tested as inducers of 3-chlorobenzoate dehalogenation activity as described in the legend to Table 4. All compounds were initially at 500 μM; the 3-halo compounds were amended during growth as they were dehalogenated. Values presented are the average of duplicate or triplicate cultures± sample standard deviation.

[2] = test system: Desulfomonile tiedjei cells; test: 3-chlorobenzoate dechlorination by starved stationary phase induced cells with or without pyruvate (Table 3); type: cell-based
Description: Cultures were grown using strict anaerobic technique in a synthetic minimal medium amended with vitamins (DeWeerd, et al, Arch. of Microbiol. 154, 23-30 (1990)), pyruvate at 20 mM, and reduced with 1 mM cysteine and 0.1 mM Na2 S2 O4. The concentration of nicotinamide and 1,4-naphthoquinone were 500 μgl^-1 and 200 μgl^-1, respectively. Thiamine, hemin and lipoic acid were used at 50 μg/liter. To induce 3-chlorobenzoate dechlorination activity, 3-fluorobenzoate was added to 0.1 mM. The complete medium was inoculated with a 1% transfer from homologous medium (without fluorobenzoate). […]
Cultures were harvested by centrifugation and resuspended in 20 to 40% of the initial volume in a cold anaerobic assay buffer normally consisting of 50 mM NaCl, 10 mM sodium pyruvate, 10 mM HEPES (N-2[hydroxyethylP]piperazine-N'-[2-ethanesulfonic acid], hemisodium salt Sigma);, 0.00001% resazurin and reduced with 1 mM cysteine-HCl and 1 mM titanium (III) citrate. […] The assays were terminated at the indicated times by transferring the serum bottles to an ice water bath, where they were stored until analyzed. Protein concentrations were determined by a modification of the Lowry method (Hanson, R. S. and J. A. Phillips, In P. Gerhardt (ed.) Manual of methods for general microbiology. American Society for Microbiology, Washington, D. C. p. 328-364 (1981)). […]

[3] = test system: Desulfomonile tiedjei cells; test: PCE dechlorination by starved stationary phase induced cells with or without pyruvate (Table 3); type: cell-based; conditions: for Mole % recovered, PCE / Mole % recovered, TCE / Mole % recovered, cis-DCE / Mole % recovered, trans-DCE / Total Cl Removed: PCE 1.66 μg/ml, 37° C., 2 hours
Description: (§1) Cultures were grown using strict anaerobic technique in a synthetic minimal medium amended with vitamins (DeWeerd, et al, Arch. of Microbiol. 154, 23-30 (1990)), pyruvate at 20 mM, and reduced with 1 mM cysteine and 0.1 mM Na2 S2 O4. The concentration of nicotinamide and 1,4-naphthoquinone were 500 μgl^-1 and 200 μgl^-1, respectively. Thiamine, hemin and lipoic acid were used at 50 μg/liter. To induce 3-chlorobenzoate dechlorination activity, 3-fluorobenzoate was added to 0.1 mM. The complete medium was inoculated with a 1% transfer from homologous medium (without fluorobenzoate). Cultures were grown at 37° C. in the dark for about 14 days for fresh cells or 28 days for starved stationary phase cells.
(§2) Cultures were harvested by centrifugation and resuspended in 20 to 40% of the initial volume in a cold anaerobic assay buffer normally consisting of 50 mM NaCl, 10 mM sodium pyruvate, 10 mM HEPES (N-2[hydroxyethylP]piperazine-N'-[2-ethanesulfonic acid], hemisodium salt Sigma);, 0.00001% resazurin and reduced with 1 mM cysteine-HCl and 1 mM titanium (III) citrate. Resuspended cells were used to completely fill N2 sparged 10 ml serum bottles after which chlorinated ethylenes were added from a 0.5 or 1 mg/ml stock in methanol for PCE and TCE respectively. The vials were immediately sealed with Teflon lined rubber septa and aluminum crimp seals, leaving no headspace. The assays were commenced by transferring the serum bottles to a 37° C. water bath. The assays were terminated at the indicated times by transferring the serum bottles to an ice water bath, where they were stored until analyzed. Protein concentrations were determined by a modification of the Lowry method (Hanson, R. S. and J. A. Phillips, In P. Gerhardt (ed.) Manual of methods for general microbiology. American Society for Microbiology, Washington, D. C. p. 328-364 (1981)).
(§3) Chlorinated ethylenes were monitored with a Tekmar purge and trap unit (model 4000) connected to a Hewlett-Packard GC (Sunnyville, Calif.) equipped with an HP-5 cappillary column (30 m×0.53 mm×2.6 μm film thickness) and flame ionization detector. Samples (5 ml) were purged onto Tenax TA (Supelco, Bellefonte, Pa.) adsorbent with helium (30 ml/min for 16 min.), desorbed (180° C. for 4 min.), and separated using helium as a carrier at 6 ml/min. The temperature program was 30° C. for 8 min, increasing to 200° C. at 4° C./min and followed by an isothermal period of 5 min. The injection and detector temperatures were 220° C. and 300° C., respectively. PCE and its dechlorinated products were identified by comparison with authentic standards.
^a Starved stationary phase induced cultures were resuspended at a
concentration of 521 μg protein per ml in buffer without pyruvate,
amended with PCE to a final concentration of 1.66 μg/ml and incubated
at 37° C. for 2 hours. Data are the average of duplicate vials and
^b 0.1 mMole sodium pyruvate was added to duplicate vials before
addition of cell suspensions to give a final concentration of ca. 10 mM

[4] = test system: Desulfomonile tiedjei cells; test: PCE and TCE dechlorination by resuspended cells induced with 3-fluorobenzoate versus non-induced cells (Table 1, FIG. 1); type: cell-based; conditions: for Mole % recovered, PCE / Mole % recovered, TCE / Mole % recovered, cis-DCE / Total Cl Removed: 2 μg/ml substrate, 37° C., 2 hr; for Mole % recovered, PCE / Mole % recovered, TCE / Mole % recovered, cis-DCE: average of duplicate vials; for Total Cl Removed: calculated from input concentration and Mole % recovered
Description: as §1, §2, §3
To further examine the transformation of both PCE and TCE and to determine if dechlorination of TCE also requires induction, a similar experiment was conducted to measure the initial transformation rates of PCE and TCE (Table 1.). […] The extent of transformation of PCE to TCE ([…] in 2H) was considerably faster than the rate of transformation of TCE to DCE ([…] in 2h), as expected from the redox potentials of these reactions (Vogel, T. M., et al., Environ. Sci. Technol. 21:722-736 (1987)) and results from mixed culture systems (Bouwer, E. J., and P. L. McCarty, Appl. Environ. Microbiol. 45:1286-1294 (1983)). The rate of transformation of PCE and TCE were much greater for the induced cultures than for the non-induced cultures.
^a suspensions were amended with PCE or TCE to a final concentration
of 2 μg/ml and incubated at 37° C. for 2 hr. Suspensions of
induced and uninduced cells contained 149 and 153 μg protein per ml
^b Data are presented as the average of duplicate vials with the
sample standard deviation in parenthesis.
^c Calculated from the input concentration of chlorinated ethylenes
and the Mole % of recovered material.

Desulfomonile tiedjei = conditions: cited from earlier work
[5] = test system: Desulfomonile tiedjei cells; test: Effect of different medium reductants and sterilant on PCE dechlorination by induced cells (Table 2); type: cell-based; conditions: PCE 1.66 μg/ml, 37° C., 2 hours
Description: as §1, with “The” for “Cultures were grown using strict anaerobic technique in a synthetic minimal medium amended with vitamins (DeWeerd, et al, Arch. of Microbiol. 154, 23-30 (1990)), pyruvate at 20 mM, and reduced with 1 mM cysteine and 0.1 mM Na2 S2 O4. The”
as §2, with “analyzed.” for “analyzed. Protein concentrations were determined by a modification of the Lowry method (Hanson, R. S. and J. A. Phillips, In P. Gerhardt (ed.) Manual of methods for general microbiology. American Society for Microbiology, Washington, D. C. p. 328-364 (1981)).”
as §3
Data are the average of duplicate vials and […]

O=C(O)c1cccc(Cl)c1 [3-chlorobenzoate]
Induction Activity (3-chlorobenzoate dechlorination activity) ([1]; Table 4, inducers at 500 μM except 3-formylbenzoate 100 μM and 3-chlorobenzoate (amended at intervals), assay 1 mM 3-chlorobenzoate, two hours): 672 ± 8 nMol/hr/mg protein
Induction Activity (3-chlorobenzoate dechlorination activity) ([1]; Table 5, inducers initially 500 μM, 3-halo compounds amended during growth): 672 ± 8 nMol/hr/mg protein
3-chlorobenzoate dechlorination in absence of pyruvate relative to presence of pyruvate [2]: about 12%

ClC(Cl)=C(Cl)Cl [PCE, tetrachloroethylene]
Mole % recovered, PCE ([3]; pyruvate + (ca. 10 mM)): 2.1 Mole %
Mole % recovered, TCE ([3]; pyruvate + (ca. 10 mM)): 44.1 Mole %
Mole % recovered, cis-DCE ([3]; pyruvate + (ca. 10 mM)): 50.3 Mole %
Mole % recovered, trans-DCE ([3]; pyruvate + (ca. 10 mM)): 3.5 Mole %
Total Cl Removed ([3]; pyruvate + (ca. 10 mM)): 29.1 (0.8) μmol/g prot. in 2 h
Mole % recovered, PCE ([3]; pyruvate -): 78.6 Mole %
Mole % recovered, TCE ([3]; pyruvate -): 21.4 Mole %
Mole % recovered, cis-DCE ([3]; pyruvate -): 0.0 Mole %
Mole % recovered, trans-DCE ([3]; pyruvate -): 0.0 Mole %
Total Cl Removed ([3]; pyruvate -): 4.1 (0.3) μmol/g prot. in 2 h
PCE dechlorination in absence of pyruvate relative to presence of pyruvate ([3]; starved stationary phase cells): about 14%
product formation from PCE or TCE ([4]; Only cultures pre-induced with 3-fluorobenzoate): measurable product formation
transformation of PCE to TCE and cis-DCE (FIG. 1) ([4]; cells grown with 0.1 mM 3-fluorobenzoate): Rapid transformation
Mole % recovered, PCE ([4]; induced (+)): 45.7 Mole %
Mole % recovered, TCE ([4]; induced (+)): 54.3 Mole %
Mole % recovered, cis-DCE ([4]; induced (+)): 0.0 Mole %
Total Cl Removed ([4]; induced (+)): 43.9 μmol/g prot. in 2 h
formation of trans-DCE from PCE ([4]; induced cells, longer time course): formation of small amounts of trans-DCE
Mole % recovered, PCE ([4]; non-induced (-)): 100.0 Mole %
Mole % recovered, TCE ([4]; non-induced (-)): 0.0 Mole %
Mole % recovered, cis-DCE ([4]; non-induced (-)): 0.0 Mole %
Total Cl Removed ([4]; non-induced (-)): 0.0 μmol/g prot. in 2 h
extent of transformation of PCE to TCE ([4]; pre-induced with 3-fluorobenzoate): 43.8 mol g protein ^-1 in 2H
dechlorination of PCE (FIG. 1) ([4]; uninduced cells): no dechlorination was detected
Dechlorination of PCE by D. tiedjei (Desulfomonile tiedjei; Fathepure et al.): 2.34 μmolg protein^-1 day^-1
Dechlorination of PCE by D. tiedjei (Desulfomonile tiedjei; Suflita et al.): 4 μmol/l in five (5) months
Mole % recovered, PCE ([5]; Formaldehyde + (0.2%)): 95.0 Mole %
Mole % recovered, TCE ([5]; Formaldehyde + (0.2%)): 5.0 Mole %
Mole % recovered, cis-DCE ([5]; Formaldehyde + (0.2%)): 0.0 Mole %
Mole % recovered, trans-DCE ([5]; Formaldehyde + (0.2%)): 0.0 Mole %
Total Cl Removed ([5]; Formaldehyde + (0.2%)): 1.0 μmol/g prot. in 2 h
Mole % recovered, PCE ([5]; Formaldehyde -): 0.0 Mole %
Mole % recovered, TCE ([5]; Formaldehyde -): 26.4 Mole %
Mole % recovered, cis-DCE ([5]; Formaldehyde -): 69.4 Mole %
Mole % recovered, trans-DCE ([5]; Formaldehyde -): 4.2 Mole %
Total Cl Removed ([5]; Formaldehyde -): 34.1 μmol/g prot. in 2 h
Mole % recovered, PCE ([5]; reductant Na2 S (1 mM)): 6.3 Mole %
Mole % recovered, TCE ([5]; reductant Na2 S (1 mM)): 18.6 Mole %
Mole % recovered, cis-DCE ([5]; reductant Na2 S (1 mM)): 70.7 Mole %
Mole % recovered, trans-DCE ([5]; reductant Na2 S (1 mM)): 4.4 Mole %
Total Cl Removed ([5]; reductant Na2 S (1 mM)): 45.4 μmol/g prot. in 2 h
Mole % recovered, PCE ([5]; reductant TiCit): 0.0 Mole %
Mole % recovered, TCE ([5]; reductant TiCit): 9.4 Mole %
Mole % recovered, cis-DCE ([5]; reductant TiCit): 85.8 Mole %
Mole % recovered, trans-DCE ([5]; reductant TiCit): 4.7 Mole %
Total Cl Removed ([5]; reductant TiCit): 50.0 μmol/g prot. in 2 h
